Calls of active or inactive are those of the source.
What was measured:
HeLa = experiment: viability loss in HeLa cells – cell-based, 24 h, cherry-picked samples, cytotoxicity control, dose response (AID 504726); assay type: functional; conditions: Homo sapiens;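 also: potency for cytotoxicity as loss of luminescence signal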
ORF 73 = biological target: T1, ORF 73 (Human herpesvirus 8, UniProt O40947); experiment: KSHV LANA DNA-binding disruption – biochemical, fluorescence polarization, cherry-picked samples, dose response (AID 504725); design: species or system Human gammaherpesvirus 8;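 also: fluorescence polarization of a labeled DNA duplex reporting LANA DNA binding; potency is for inhibitors that block LANA binding to the DNA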
T1 sequence (O40947 whole entry): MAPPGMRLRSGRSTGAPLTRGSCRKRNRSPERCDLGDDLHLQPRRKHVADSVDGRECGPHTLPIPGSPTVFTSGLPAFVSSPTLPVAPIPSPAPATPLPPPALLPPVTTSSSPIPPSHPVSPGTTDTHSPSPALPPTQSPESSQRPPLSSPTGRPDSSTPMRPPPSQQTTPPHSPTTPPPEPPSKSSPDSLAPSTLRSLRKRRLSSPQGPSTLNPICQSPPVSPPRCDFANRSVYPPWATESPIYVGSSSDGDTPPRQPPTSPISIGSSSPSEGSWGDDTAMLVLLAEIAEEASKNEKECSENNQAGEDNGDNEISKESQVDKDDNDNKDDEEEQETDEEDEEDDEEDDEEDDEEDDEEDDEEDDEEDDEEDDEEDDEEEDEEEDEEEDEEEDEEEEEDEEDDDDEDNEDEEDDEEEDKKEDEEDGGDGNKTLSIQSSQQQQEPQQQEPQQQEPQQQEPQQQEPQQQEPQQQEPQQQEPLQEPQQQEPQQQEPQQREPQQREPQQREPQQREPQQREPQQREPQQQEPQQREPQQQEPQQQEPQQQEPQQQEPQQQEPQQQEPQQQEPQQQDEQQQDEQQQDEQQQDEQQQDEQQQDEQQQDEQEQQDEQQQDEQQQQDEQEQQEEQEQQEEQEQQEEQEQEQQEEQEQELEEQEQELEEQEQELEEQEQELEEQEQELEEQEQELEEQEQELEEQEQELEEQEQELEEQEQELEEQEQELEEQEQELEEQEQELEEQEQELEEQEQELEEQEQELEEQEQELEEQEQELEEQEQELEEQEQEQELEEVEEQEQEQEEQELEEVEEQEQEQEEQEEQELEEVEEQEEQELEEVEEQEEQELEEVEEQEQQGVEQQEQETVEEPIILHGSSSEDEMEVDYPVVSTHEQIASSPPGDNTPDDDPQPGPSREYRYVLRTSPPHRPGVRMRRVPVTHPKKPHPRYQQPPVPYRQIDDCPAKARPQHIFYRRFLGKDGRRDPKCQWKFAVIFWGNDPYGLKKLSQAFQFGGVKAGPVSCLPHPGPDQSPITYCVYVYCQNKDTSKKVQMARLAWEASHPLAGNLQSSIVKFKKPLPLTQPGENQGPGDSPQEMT

Nonstructural protein 1 = Nonstructural protein 1 (Influenza A virus, UniProt Q194T2); assay type: functional, Influenza A virus (A/California/07/2009(H1N1))
Chain of Nonstructural protein 1 (Q194T2 whole entry): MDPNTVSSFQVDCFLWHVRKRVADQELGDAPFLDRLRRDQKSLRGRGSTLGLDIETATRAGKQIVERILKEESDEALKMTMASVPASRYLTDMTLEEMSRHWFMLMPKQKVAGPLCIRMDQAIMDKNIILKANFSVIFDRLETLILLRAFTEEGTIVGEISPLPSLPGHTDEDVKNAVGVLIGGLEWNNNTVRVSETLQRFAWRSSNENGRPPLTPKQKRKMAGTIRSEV

[1] = viability loss in HeLa cells – cytotoxicity control for MgcRacGAP inhibitor project, dose response (AID 624300); assay type: functional
[2] = biological target: T2, Rac GTPase-activating protein 1 (Homo sapiens, UniProt Q9H0H5); experiment: blockers of MgcRacGAP-driven Rac1 GTP hydrolysis – biochemical, ADP Hunter fluorescence, primary and confirmatory, confirmation (AID 624330); assay type: functional
T2 sequence (Q9H0H5 whole entry): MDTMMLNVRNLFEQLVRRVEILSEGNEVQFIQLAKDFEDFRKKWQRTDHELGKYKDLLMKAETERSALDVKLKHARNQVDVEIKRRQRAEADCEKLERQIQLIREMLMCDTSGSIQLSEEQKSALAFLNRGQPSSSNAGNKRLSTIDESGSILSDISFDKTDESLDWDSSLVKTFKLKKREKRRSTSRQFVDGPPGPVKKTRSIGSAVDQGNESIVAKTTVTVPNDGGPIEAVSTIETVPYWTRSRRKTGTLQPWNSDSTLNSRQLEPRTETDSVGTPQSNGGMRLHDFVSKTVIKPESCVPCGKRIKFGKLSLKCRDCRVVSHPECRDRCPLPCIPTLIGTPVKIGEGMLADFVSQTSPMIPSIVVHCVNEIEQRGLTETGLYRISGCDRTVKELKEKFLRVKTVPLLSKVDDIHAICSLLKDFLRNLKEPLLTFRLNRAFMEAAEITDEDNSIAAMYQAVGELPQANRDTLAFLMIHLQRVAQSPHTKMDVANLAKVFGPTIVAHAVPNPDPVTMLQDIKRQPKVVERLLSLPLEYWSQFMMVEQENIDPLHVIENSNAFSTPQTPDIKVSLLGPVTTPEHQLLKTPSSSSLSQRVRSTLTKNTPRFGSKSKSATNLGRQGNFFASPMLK

[3] = biological target: Matrix metalloproteinase-14 (Homo sapiens, UniProt P50281); experiment: Dose Response confirmation of uHTS hits for a small molecule inhibitors of MT1-MMP activation in a fluorescence assay set 2.; assay type: functional
Caspase-6 = biological target: T3, Caspase-6 (Homo sapiens, UniProt P55212); experiment: inhibition of CASP6 peptide cleavage – biochemical, VEID-R110 fluorescence, cherry-pick, dose response (AID 720632)
T3 sequence (P55212 whole entry): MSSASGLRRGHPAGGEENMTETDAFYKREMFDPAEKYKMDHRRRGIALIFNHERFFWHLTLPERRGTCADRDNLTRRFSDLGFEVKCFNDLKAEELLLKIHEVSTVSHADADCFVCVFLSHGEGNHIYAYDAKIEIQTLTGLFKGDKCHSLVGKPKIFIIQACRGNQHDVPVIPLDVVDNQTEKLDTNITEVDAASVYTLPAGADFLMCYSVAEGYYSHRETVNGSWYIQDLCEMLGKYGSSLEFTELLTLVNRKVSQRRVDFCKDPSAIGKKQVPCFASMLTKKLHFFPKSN

[4] = biological target: T4, Histone-lysine N-methyltransferase NSD2 (Homo sapiens, UniProt O96028); assay type: biochemical
T4 sequence (O96028 whole entry): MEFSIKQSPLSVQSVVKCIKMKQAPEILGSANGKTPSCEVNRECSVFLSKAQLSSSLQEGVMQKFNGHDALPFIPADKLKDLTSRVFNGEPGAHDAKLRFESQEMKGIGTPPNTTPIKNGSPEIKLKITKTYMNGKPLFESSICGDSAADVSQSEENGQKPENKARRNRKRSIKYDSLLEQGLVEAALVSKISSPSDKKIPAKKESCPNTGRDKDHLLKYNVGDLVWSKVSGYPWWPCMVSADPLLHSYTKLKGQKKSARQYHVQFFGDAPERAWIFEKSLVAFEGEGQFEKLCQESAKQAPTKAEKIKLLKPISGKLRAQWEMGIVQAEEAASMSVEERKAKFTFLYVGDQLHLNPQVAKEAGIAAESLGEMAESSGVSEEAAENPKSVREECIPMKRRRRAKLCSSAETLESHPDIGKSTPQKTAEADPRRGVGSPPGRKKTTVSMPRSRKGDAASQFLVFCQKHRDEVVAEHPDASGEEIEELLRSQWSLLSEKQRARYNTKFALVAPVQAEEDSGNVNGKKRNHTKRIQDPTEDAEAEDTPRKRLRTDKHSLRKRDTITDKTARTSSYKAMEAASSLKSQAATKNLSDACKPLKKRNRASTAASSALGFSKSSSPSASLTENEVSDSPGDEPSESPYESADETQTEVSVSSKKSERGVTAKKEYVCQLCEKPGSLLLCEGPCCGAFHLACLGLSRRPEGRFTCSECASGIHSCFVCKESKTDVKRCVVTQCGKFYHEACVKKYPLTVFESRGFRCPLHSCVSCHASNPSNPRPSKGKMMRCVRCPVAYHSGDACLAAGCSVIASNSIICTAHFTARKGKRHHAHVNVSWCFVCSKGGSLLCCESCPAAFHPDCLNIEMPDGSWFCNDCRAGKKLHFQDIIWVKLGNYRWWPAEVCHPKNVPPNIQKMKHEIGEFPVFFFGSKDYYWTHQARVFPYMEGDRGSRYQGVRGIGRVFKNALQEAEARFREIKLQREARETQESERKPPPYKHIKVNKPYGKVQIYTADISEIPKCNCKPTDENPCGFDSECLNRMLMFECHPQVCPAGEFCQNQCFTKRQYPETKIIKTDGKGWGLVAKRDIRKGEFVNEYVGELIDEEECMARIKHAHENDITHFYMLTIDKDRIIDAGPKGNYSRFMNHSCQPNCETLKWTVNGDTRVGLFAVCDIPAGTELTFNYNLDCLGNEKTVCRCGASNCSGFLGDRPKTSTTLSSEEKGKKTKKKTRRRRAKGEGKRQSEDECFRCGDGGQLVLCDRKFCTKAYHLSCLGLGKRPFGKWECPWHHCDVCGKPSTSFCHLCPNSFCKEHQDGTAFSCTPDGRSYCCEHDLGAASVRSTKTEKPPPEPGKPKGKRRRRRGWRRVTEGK

[5] = biological target: Metabotropic glutamate receptor 3 (Rattus norvegicus, UniProt P31422); experiment: inhibition of rat mGlu3 glutamate signaling – HEK/GIRK cells, thallium flux, dose response (AID 651839); assay type: functional
Chain of Metabotropic glutamate receptor 3 (P31422 whole entry): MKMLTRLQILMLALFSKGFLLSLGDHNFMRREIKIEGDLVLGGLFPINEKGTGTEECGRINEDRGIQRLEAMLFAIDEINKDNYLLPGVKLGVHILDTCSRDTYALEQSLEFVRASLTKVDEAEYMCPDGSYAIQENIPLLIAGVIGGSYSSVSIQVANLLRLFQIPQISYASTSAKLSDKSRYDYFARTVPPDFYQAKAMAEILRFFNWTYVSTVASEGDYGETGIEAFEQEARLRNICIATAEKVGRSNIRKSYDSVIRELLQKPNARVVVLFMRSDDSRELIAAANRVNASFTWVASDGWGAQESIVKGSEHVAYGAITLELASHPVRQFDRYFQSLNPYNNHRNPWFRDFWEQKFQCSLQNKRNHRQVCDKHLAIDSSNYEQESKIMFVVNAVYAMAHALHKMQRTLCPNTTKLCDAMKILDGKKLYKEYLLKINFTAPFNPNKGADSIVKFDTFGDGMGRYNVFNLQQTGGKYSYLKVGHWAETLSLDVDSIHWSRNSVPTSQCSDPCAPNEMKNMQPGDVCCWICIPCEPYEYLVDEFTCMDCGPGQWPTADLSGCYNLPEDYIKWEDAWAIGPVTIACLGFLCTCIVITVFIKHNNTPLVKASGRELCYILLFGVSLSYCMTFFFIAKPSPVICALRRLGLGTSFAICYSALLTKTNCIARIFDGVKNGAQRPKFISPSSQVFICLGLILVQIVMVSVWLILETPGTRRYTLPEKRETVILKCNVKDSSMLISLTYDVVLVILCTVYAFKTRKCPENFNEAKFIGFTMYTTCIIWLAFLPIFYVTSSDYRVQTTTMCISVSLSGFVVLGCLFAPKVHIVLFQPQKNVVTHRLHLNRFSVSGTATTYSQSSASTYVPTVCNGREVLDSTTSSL

[6] = Mycobacterium tuberculosis BioA enzyme inhibitor Measured in Biochemical System Using Plate Reader - 2163-02_Inhibitor_Dose_DryPowder_Activity.
[7] = viability of PTEN-deleted HCT116 cells – cell-based, HCT116 PTEN knockout, dose response (AID 1047); assay type: functional;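 also: HCT116 colon tumor cells with PTEN knocked out; cells exposed to compound for 60 hours before readout; potency for loss of cell viability measured by luminescence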
[8] = viability of HCT116 lacking mutant beta-catenin – cell-based, human colon tumor, dose response (AID 1045); assay type: functional;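 also: HCT116 colon tumor cells with beta catenin knocked out; cells exposed to compound for 60 hours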
[9] = biological target: T5, Ubiquitin-conjugating enzyme E2 N (Homo sapiens, UniProt P61088); assay type: functional;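 also: Dose-response confirmation in a TR-FRET assay detecting UBC13-driven polyubiquitin chain formation, inhibition measured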
T5 sequence (P61088 whole entry): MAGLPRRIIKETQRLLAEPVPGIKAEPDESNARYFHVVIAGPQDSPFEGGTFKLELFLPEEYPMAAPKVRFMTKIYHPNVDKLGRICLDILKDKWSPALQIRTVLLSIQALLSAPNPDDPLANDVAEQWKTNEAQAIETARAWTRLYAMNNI

INS1 = experiment: INS-1E survival protection against cytokine death – cell-based, luminescence, retest, dose response (AID 449756); assay type: functional; conditions: Rattus norvegicus;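 also: cell death triggered by IL-1 beta plus TNF-alpha plus IFN-gamma mixture; protective hits raise ATP signal compared with cytokine alone wells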
[10] = reduction of Shn3 3'UTR-driven luciferase in osteoblasts – cell-based, Clone20 osteoblasts, firefly luciferase, cherry-picked, dose response (AID 624132); assay type: functional;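 also: firefly luciferase luminescence from reporter carrying the Shn3 3'UTR in osteoblasts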
[11] = loss of viability in HepG2 cells – cell-based, CellTiter-Glo, cherry-picked, cytotoxicity control for Shn3 inhibitor project, dose response (AID 624134); assay type: functional
[12] = non-specific 3'UTR reporter inhibition in Clone20-Shn3RL – cell-based, Renilla luciferase, cherry-picked, counter-screen for Shn3 inhibitor project, dose response (AID 624133); assay type: functional
[13] = Shn3 3'UTR reporter signal decrease – cell-based, Clone20 osteoblasts, firefly luciferase, cherry-pick, set 2, Schnurri-3 inhibitor project, dose response (AID 720490); assay type: functional;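 also: actives lower the luminescence signal as inhibitors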
[14] = EF1alpha-driven Renilla reporter with control 3'UTR suppression – Clone20-Shn3RL cells, dual-Glo, cherry-pick, set 2, counter-screen for Shn3 3'UTR targeting project, dose response (AID 720724); assay type: functional, cell-based; conditions: Dual-Go Shn3RL
[15] = general mammalian cell viability loss – inhibitor set, cherry-pick, set 2, cytotoxicity control for miR-122 modulator project, dose response (AID 720697); assay type: functional, cell-based
[16] = general mammalian cell viability loss – activator set, cherry-pick, cytotoxicity control for miR-122 modulator project, dose response (AID 720690); assay type: functional, cell-based;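 also: HEK293T human cells scored for general mammalian cytotoxicity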

O=S(=O)(O)c1cc(O)c(N=Nc2ccc(O)cc2O)c2ccccc12
AC50 (HeLa): 32.4 µM (active) | AC50 (ORF 73): 22.2 µM (active) | IC50 (Nonstructural protein 1): 4.32 µM (active) | CC50 [1]: 100 µM (active) | IC50 [2]: 28.8 µM (active) | IC50 [3]: 20.5 µM (inactive) | AC50 (Caspase-6): 2.16 µM (active) | AC50 [4]: 7.35 µM (active)

O=C(c1ccc(C#Cc2ccc3c(c2)OCO3)cc1)N1CCCC(CO)C1 (stereo unspecified)
IC50 [5]: 7.26 µM (active)

Cc1ccc(/C=C(\CC(=O)O)c2nc3ccccc3s2)cc1[N+](=O)[O-]
AC50 [6]: 14.3 µM (active)

CCCCNc1cc(C)nc(NCc2ccccc2)n1
EC50 [7]: 4.04 µM (active) | EC50 [8]: 3.96 µM (active) | IC50 [9]: > 20 µM (inactive) | AC50 (INS1): 2.49 µM (active) | AC50 [10]: 0.719 µM (active) | AC50 [11]: 13.8 µM (active) | AC50 [12]: 3.36 µM (active) | AC50 [13]: 1.19 µM (active) | AC50 [14]: 31.1 µM (active) | AC50 [15]: 7.51 µM (active) | AC50 [16]: 10.6 µM (active)

From ChEMBL document CHEMBL1201862, “PubChem BioAssay data set” (2004)
